Experiments:
[1] = molecular target: T1, p38 MAPKα isoform (MAPK14) (Homo sapiens, UniProt Q16539); test: p38 MAPKα enzyme inhibition (Z-LYTE FRET); type: biochemical; conditions: Table 2A; read-out: IC50 Values for Enzyme Inhibition p38 MAPKα
T1 construct: purchased Life Technologies
Summary of the method: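 Activity was measured indirectly as phosphorylation of a MAPKAP-K2-derived FRET peptide. Enzyme (added at 40 ng/mL) was preincubated 2 h at RT with compound (added solutions 40–0.0012 μg/mL).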

p38MAPKγ (MAPK12) = molecular target: T2, p38MAPKγ (MAPK12) (Homo sapiens, UniProt P53778); test: p38 MAPKγ enzyme inhibition (Z-LYTE FRET); type: biochemical; conditions: Table 2A; read-out: IC50 Values for Enzyme Inhibition p38 MAPKγ
T2 construct: purchased Life Technologies
T2 sequence (P53778 1-367): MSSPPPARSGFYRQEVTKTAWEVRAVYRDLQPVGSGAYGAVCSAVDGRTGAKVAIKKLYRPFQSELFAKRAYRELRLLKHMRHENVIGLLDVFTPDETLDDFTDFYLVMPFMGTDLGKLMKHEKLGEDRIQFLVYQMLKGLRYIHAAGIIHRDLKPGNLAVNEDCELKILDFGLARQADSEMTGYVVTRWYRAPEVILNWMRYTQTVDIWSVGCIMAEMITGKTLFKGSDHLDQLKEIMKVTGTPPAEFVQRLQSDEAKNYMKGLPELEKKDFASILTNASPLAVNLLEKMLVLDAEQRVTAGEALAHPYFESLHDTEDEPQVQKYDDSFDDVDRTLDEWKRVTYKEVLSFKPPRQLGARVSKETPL
Summary of the method: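 Enzyme (added at 800 ng/mL) was preincubated 2 h at RT with compound (solutions of 40 to 0.0012 μg/mL), then FRET peptide (8 μM) and ATP (400 μM), both as added, were reacted 1 h at RT. Protease development followed for 1 h; phosphorylation was read as the coumarin/fluorescein emission ratio.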

c-Src = molecular target: T3, c-Src (Homo sapiens, UniProt P12931); test: c-Src enzyme inhibition (Z-LYTE FRET); type: biochemical; conditions: Table 2A
T3 construct: purchased Life Technologies
Summary of the method: (§1)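 Z-LYTE readout: coumarin-to-fluorescein ratio after 1 h protease cleavage of unphosphorylated peptide. Kinase reactions ran 1 h at RT with ATP stock at 800 μM (c-Src) or 60 μM (Hck, Syk), following 2 h compound preincubation over 0.0012–40 μg/mL; enzyme stocks 1000/1400/2000 ng/mL.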

Syk = molecular target: T4, Syk (Homo sapiens, UniProt P43405); test: Syk enzyme inhibition (Z-LYTE FRET); type: biochemical; conditions: Table 2A
T4 construct: purchased Life Technologies
Summary of the method: as §1

GSK 3α enzyme isoform = molecular target: T5, GSK 3α enzyme isoform (Homo sapiens, UniProt P49840); test: GSK 3α enzyme inhibition (Z-LYTE FRET); type: biochemical; conditions: Table 2A; read-out: IC50 Values for Enzyme Inhibition GSK3α
T5 construct: purchased Life Technologies
Summary of the method: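 Z-LYTE FRET kinase assay: GSK3α protein (500 ng/mL stock) preincubated with compound (0.0012–40 μg/mL stocks) for 2 h at RT. FRET peptide (8 μM stock) and ATP (40 μM stock) added for 1 h at RT, then protease development for 1 h. Phosphorylation taken from the coumarin/fluorescein emission ratio.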

d-U937 cells = test: Cell viability: MTT assay in differentiated U937 cells; type: cell-based, human; conditions: 10 μg/mL
Summary of the method: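 Viability loss, calculated against 0.5% DMSO vehicle (gains reported negative), was measured by MTT reduction (1 h) and A550 after DMSO solubilisation. Compound exposure of d-U937 cells was 10 μg/mL final, for 24 h in 10% FCS or 4 h in 5% FCS RPMI1640.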

T1 sequence (Q16539 whole entry, canonical isoform): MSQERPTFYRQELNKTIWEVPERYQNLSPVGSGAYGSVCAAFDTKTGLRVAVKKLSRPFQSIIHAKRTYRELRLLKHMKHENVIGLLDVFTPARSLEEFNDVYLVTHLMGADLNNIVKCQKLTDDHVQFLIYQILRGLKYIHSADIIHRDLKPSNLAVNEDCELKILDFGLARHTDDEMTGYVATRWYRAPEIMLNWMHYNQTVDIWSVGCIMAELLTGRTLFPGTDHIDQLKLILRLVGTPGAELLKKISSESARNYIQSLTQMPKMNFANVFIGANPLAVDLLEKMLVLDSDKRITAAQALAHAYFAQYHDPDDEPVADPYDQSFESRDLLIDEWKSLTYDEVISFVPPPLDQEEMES
T5 sequence (P49840 whole entry, canonical isoform): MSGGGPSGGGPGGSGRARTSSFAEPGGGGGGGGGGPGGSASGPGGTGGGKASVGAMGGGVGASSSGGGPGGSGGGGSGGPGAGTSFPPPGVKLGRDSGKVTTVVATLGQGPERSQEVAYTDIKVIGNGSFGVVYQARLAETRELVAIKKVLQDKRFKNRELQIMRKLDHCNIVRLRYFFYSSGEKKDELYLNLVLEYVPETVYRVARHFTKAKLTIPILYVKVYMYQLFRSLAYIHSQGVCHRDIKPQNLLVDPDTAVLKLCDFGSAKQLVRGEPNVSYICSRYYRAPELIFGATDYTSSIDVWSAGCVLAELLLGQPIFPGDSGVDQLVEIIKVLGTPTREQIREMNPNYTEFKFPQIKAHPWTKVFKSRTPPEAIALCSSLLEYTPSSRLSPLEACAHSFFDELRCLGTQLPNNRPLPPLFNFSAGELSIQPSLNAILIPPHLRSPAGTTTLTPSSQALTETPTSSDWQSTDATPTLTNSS
T3 sequence (P12931 whole entry): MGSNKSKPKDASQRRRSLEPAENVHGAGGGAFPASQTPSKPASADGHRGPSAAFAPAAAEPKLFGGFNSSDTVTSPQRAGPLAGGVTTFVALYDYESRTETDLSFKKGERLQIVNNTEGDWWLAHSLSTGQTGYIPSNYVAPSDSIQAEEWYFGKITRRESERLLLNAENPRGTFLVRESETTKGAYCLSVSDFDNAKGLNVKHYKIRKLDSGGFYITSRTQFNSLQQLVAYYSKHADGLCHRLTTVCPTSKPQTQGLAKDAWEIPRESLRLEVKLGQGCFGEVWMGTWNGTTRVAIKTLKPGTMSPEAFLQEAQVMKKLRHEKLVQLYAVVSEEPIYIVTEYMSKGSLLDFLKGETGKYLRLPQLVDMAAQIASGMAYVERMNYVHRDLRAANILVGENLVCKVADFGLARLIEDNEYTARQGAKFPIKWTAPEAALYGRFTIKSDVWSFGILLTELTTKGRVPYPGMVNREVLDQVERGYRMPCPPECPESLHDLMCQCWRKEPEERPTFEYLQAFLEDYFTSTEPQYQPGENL

Compound COCCNC(=O)c1cnc(Nc2cc(COc3ccc(NC(=O)Nc4cc(C(C)(C)C)nn4-c4ccc(C)cc4)c4ccccc34)ccn2)cn1 [Example 3] has an IC50 [1] of 9 nM, an IC50 (p38MAPKγ (MAPK12)) of 222 nM and an IC50 (c-Src) of 144 nM. The IC50 (Syk) was over 14.3 µM, the IC50 (GSK 3α enzyme isoform) was over 14.3 µM and the “MTT Assay Cell viability at time point indicated in d-U937 Cells, 4 h” value (“MTT Assay Cell viability … in d-U937 Cells, 4 h” for short) (d-U937 cells) was “− (−ve and +ve indicate the value is below and above, respectively, the no significant effect threshold defined as 30% inhibition at 10 μg/mL at the time point indicated)”. For the same compound, the “MTT Assay Cell viability at time point indicated in d-U937 Cells, 24 h” value (“MTT Assay Cell viability … 24 h” below) (d-U937 cells) was “− (−ve and +ve indicate the value is below and above, respectively, the no significant effect threshold defined as 30% inhibition at 10 μg/mL at the time point indicated)”.

Compound Cc1ccc(-n2nc(C(C)(C)C)cc2NC(=O)Nc2ccc(OCc3ccnc(Nc4cncc(CC(=O)N(C)C)n4)c3)c3ccccc23)cc1 [Example 8, 2-(6-((4-(((4-(3-(3-(tert-butyl)-1-(p-tolyl)-1H-pyrazol-5-yl)ureido)naphthalen-1-yl)oxy)methyl)pyridin-2-yl)amino)pyrazin-2-yl)-N,N-dimethylacetamide] has an IC50 [1] of 1 nM, an IC50 (p38MAPKγ (MAPK12)) of 43 nM and an IC50 (c-Src) of 32 nM. For the same compound, the IC50 (Syk) was over 14.6 µM, the IC50 (GSK 3α enzyme isoform) was 0.138 µM and the “MTT Assay Cell viability … in d-U937 Cells, 4 h” value (d-U937 cells) was “− (−ve and +ve indicate the value is below and above, respectively, the no significant effect threshold defined as 30% inhibition at 10 μg/mL at the time point indicated)”. The “MTT Assay Cell viability … 24 h” value (d-U937 cells) was “+ (−ve and +ve indicate the value is below and above, respectively, the no significant effect threshold defined as 30% inhibition at 10 μg/mL at the time point indicated)”.

Compound CC(C)(C)c1cc(NC(=O)Nc2ccc(OCc3ccnc(Nc4cnccn4)c3)c3ccccc23)n(-c2cccc(F)c2)n1 [Example 49] has an IC50 [1] of 11 nM, an IC50 (p38MAPKγ (MAPK12)) of 129 nM and an IC50 (c-Src) of 556 nM. The IC50 (Syk) was 9.25 µM, the IC50 (GSK 3α enzyme isoform) was 4.48 µM and the “MTT Assay Cell viability … in d-U937 Cells, 4 h” value (d-U937 cells) was “− (−ve and +ve indicate the value is below and above, respectively, the no significant effect threshold defined as 30% inhibition at 10 μg/mL at the time point indicated)”. For the same compound, the “MTT Assay Cell viability … 24 h” value (d-U937 cells) was “− (−ve and +ve indicate the value is below and above, respectively, the no significant effect threshold defined as 30% inhibition at 10 μg/mL at the time point indicated)”.

Cc1ccc(-n2nc(C(C)(C)C)cc2NC(=O)Nc2ccc(OCc3ccnc(Nc4cncc(C)n4)c3)c3ccccc23)cc1 [Example 20] gave an IC50 [1] of 15 nM, an IC50 (p38MAPKγ (MAPK12)) of 62 nM and an IC50 (c-Src) of 150 nM. For the same compound, the IC50 (Syk) was over 16.3 µM, the IC50 (GSK 3α enzyme isoform) was 9.04 µM and the “MTT Assay Cell viability … in d-U937 Cells, 4 h” value (d-U937 cells) was “− (−ve and +ve indicate the value is below and above, respectively, the no significant effect threshold defined as 30% inhibition at 10 μg/mL at the time point indicated)”. The “MTT Assay Cell viability … 24 h” value (d-U937 cells) was “− (−ve and +ve indicate the value is below and above, respectively, the no significant effect threshold defined as 30% inhibition at 10 μg/mL at the time point indicated)”.

Cc1ccc(-n2nc(C(C)(C)C)cc2NC(=O)Nc2ccc(OCc3ccnc(Nc4cncc(C#N)n4)c3)c3ccccc23)cc1 [Example 11] was tested, and the IC50 [1] was 52 nM, the IC50 (p38MAPKγ (MAPK12)) was 682 nM and the IC50 (c-Src) was 600 nM. For the same compound, the IC50 (Syk) was over 16 µM, the IC50 (GSK 3α enzyme isoform) was over 16 µM and the “MTT Assay Cell viability … in d-U937 Cells, 4 h” value (d-U937 cells) was “− (−ve and +ve indicate the value is below and above, respectively, the no significant effect threshold defined as 30% inhibition at 10 μg/mL at the time point indicated)”. For the same compound, the “MTT Assay Cell viability … 24 h” value (d-U937 cells) was “− (−ve and +ve indicate the value is below and above, respectively, the no significant effect threshold defined as 30% inhibition at 10 μg/mL at the time point indicated)”.

Cc1ccc(-n2nc(C(C)(C)C)cc2NC(=O)Nc2ccc(OCc3ccnc(Nc4cnc(CC(N)=O)cn4)c3)c3ccccc23)cc1 [Example 30] showed an IC50 [1] of 2 nM, an IC50 (p38MAPKγ (MAPK12)) of 29 nM and an IC50 (c-Src) of 19 nM. The IC50 (Syk) was over 15.2 µM, the IC50 (GSK 3α enzyme isoform) was 1.49 µM and the “MTT Assay Cell viability … in d-U937 Cells, 4 h” value (d-U937 cells) was “− (−ve and +ve indicate the value is below and above, respectively, the no significant effect threshold defined as 30% inhibition at 10 μg/mL at the time point indicated)”. The “MTT Assay Cell viability … 24 h” value (d-U937 cells) was “− (−ve and +ve indicate the value is below and above, respectively, the no significant effect threshold defined as 30% inhibition at 10 μg/mL at the time point indicated)”.

CC(=O)NCc1cnc(Nc2cc(COc3ccc(NC(=O)Nc4cc(C(C)(C)C)nn4-c4ccc(C)cc4)c4ccccc34)ccn2)cn1 [Example 6, N-((5-((4-(((4-(3-(3-(tert-butyl)-1-(p-tolyl)-1H-pyrazol-5-yl)ureido)naphthalen-1-yl)oxy)methyl)pyridin-2-yl)amino)pyrazin-2-yl)methyl)acetamide] gave an IC50 [1] of 3 nM, an IC50 (p38MAPKγ (MAPK12)) of 37 nM and an IC50 (c-Src) of 24 nM. The IC50 (Syk) was 7.52 µM, the IC50 (GSK 3α enzyme isoform) was 0.922 µM and the “MTT Assay Cell viability … in d-U937 Cells, 4 h” value (d-U937 cells) was “− (−ve and +ve indicate the value is below and above, respectively, the no significant effect threshold defined as 30% inhibition at 10 μg/mL at the time point indicated)”. The “MTT Assay Cell viability … 24 h” value (d-U937 cells) was “− (−ve and +ve indicate the value is below and above, respectively, the no significant effect threshold defined as 30% inhibition at 10 μg/mL at the time point indicated)”.

Compound Cc1ccc(-n2nc(C(C)(C)C)cc2NC(=O)Nc2ccc(OCc3ccnc(Nc4cncc(C5CC5)n4)c3)c3ccccc23)s1 [Example 24] has an IC50 [1] of 38 nM, an IC50 (p38MAPKγ (MAPK12)) of 334 nM and an IC50 (c-Src) of 42 nM. The IC50 (Syk) was 8.83 µM, the IC50 (GSK 3α enzyme isoform) was 1.13 µM and the “MTT Assay Cell viability … in d-U937 Cells, 4 h” value (d-U937 cells) was “− (−ve and +ve indicate the value is below and above, respectively, the no significant effect threshold defined as 30% inhibition at 10 μg/mL at the time point indicated)”. The “MTT Assay Cell viability … 24 h” value (d-U937 cells) was “− (−ve and +ve indicate the value is below and above, respectively, the no significant effect threshold defined as 30% inhibition at 10 μg/mL at the time point indicated)”.

CCc1cnc(Nc2cc(COc3ccc(NC(=O)Nc4cc(C(C)(C)C)nn4-c4ccc(C)cc4)c4ccccc34)ccn2)cn1 [Example 37] gave an IC50 [1] of 24 nM, an IC50 (p38MAPKγ (MAPK12)) of 569 nM and an IC50 (c-Src) of 512 nM. For the same compound, the IC50 (Syk) was over 16 µM, the IC50 (GSK 3α enzyme isoform) was over 10 µM and the “MTT Assay Cell viability … in d-U937 Cells, 4 h” value (d-U937 cells) was “− (−ve and +ve indicate the value is below and above, respectively, the no significant effect threshold defined as 30% inhibition at 10 μg/mL at the time point indicated)”. For the same compound, the “MTT Assay Cell viability … 24 h” value (d-U937 cells) was “− (−ve and +ve indicate the value is below and above, respectively, the no significant effect threshold defined as 30% inhibition at 10 μg/mL at the time point indicated)”.

For Cc1ccc(-n2nc(C(C)(C)C)cc2NC(=O)Nc2ccc(OCc3ccnc(Nc4cnc(C5CC5)cn4)c3)c3ccccc23)cc1 [Example 16], the IC50 [1] was 87 nM, the IC50 (p38MAPKγ (MAPK12)) was over 7150 nM and the IC50 (c-Src) was 2520 nM. For the same compound, the IC50 (Syk) was over 15.7 µM, the IC50 (GSK 3α enzyme isoform) was over 15.7 µM and the “MTT Assay Cell viability … in d-U937 Cells, 4 h” value (d-U937 cells) was “− (−ve and +ve indicate the value is below and above, respectively, the no significant effect threshold defined as 30% inhibition at 10 μg/mL at the time point indicated)”. For the same compound, the “MTT Assay Cell viability … 24 h” value (d-U937 cells) was “− (−ve and +ve indicate the value is below and above, respectively, the no significant effect threshold defined as 30% inhibition at 10 μg/mL at the time point indicated)”.

CC(C)(C)c1cc(NC(=O)Nc2ccc(OCc3ccnc(Nc4cnccn4)c3)c3ccccc23)n(-c2cccc(Cl)c2)n1 [Example 50] showed an IC50 [1] of 22 nM, an IC50 (p38MAPKγ (MAPK12)) of 356 nM and an IC50 (c-Src) of 966 nM. The IC50 (Syk) was 5.82 µM, the IC50 (GSK 3α enzyme isoform) was 7.08 µM and the “MTT Assay Cell viability … in d-U937 Cells, 4 h” value (d-U937 cells) was “− (−ve and +ve indicate the value is below and above, respectively, the no significant effect threshold defined as 30% inhibition at 10 μg/mL at the time point indicated)”. The “MTT Assay Cell viability … 24 h” value (d-U937 cells) was “− (−ve and +ve indicate the value is below and above, respectively, the no significant effect threshold defined as 30% inhibition at 10 μg/mL at the time point indicated)”.

Source: patent US11142515B2, “Pyrazolyl-ureas as kinase inhibitors” (RESPIVERT LIMITED, priority 2014, dated 2021)
